{"source": "patent US4990538A", "about": "“Use of toremifene and its metabolites for the reversal of multidrug resistance of cancer cells against cytotoxic drugs” (priority 1989, dated 1991)", "key": {"MDR cell": {"tested_on": "MDR cell", "conditions": "Ramu et al; cited from earlier work"}, "MCF-7/DOX cells": {"tested_on": "MCF-7/DOX cells", "test": "Inhibition of cell growth / reversal of MDR in MCF-7/DOX cells (methylene blue)", "format": "cell-based, human", "conditions": "for Effectiveness in reversing MDR: MCF-7/DOX cells, Table 5 and FIG. 7; for Inhibition of cell growth, Actual: 2880 min", "method": "The cells were cultivated in 100 ul volumes in 96-well microtiter plates. The principle of the method was to cultivate cells in the presence of the drugs/ drug combinations for 48 hours. After this time the living cells were stained with methylene blue and quantitated spectrophotometrically using microtiter plate reader (Titertek Model MCC/340) interfaced to an Apple IIe computer. Inhibition of the cell growth is expressed as a percentage of absorbance of vehicle treated control cultures."}, "CHO-Adr cells": {"tested_on": "CHO-Adr cells", "test": "MTT cell viability assay in doxorubicin resistant CHO-Adr cells", "conditions": "CHO-Adr cell line", "method": "Initial cell growth studies were carried out to investigate the effect of combination toremifene +doxorubicin in doxorubicin sensitive and resistant cells. Cell cultures were carried out using wild type CHO-K1 cells as well as CHO-Adr cells, the latter being selected by a series of step-wise selections of doxorubicin resistant clones in presence of 0.4 ug/ml of doxorubicin. […] The resistant cells were stable in cell culture in the absence of doxorubicin. Both cell lines were cultivated in Hams F10 medium supplemented with 5% newborn calf serum, 5% foetal calf serum, antibiotics and 3mM glutamine. The cells were maintained as monolayer cultures 37° C. under 5% CO2. Drug sensitivity in CHO-K1and CHO-Adr cells was assessed by a semi-automated colorimetric MTT assay. The assay is dependent on the cellular reduction of MTT (3-U4,5-dimethylthiazol-2-ylA-2,5-diphenyl tertazolium bromide, thiazolyl blue) by the mitochondrial dehydrogenase of viable cells to a blue formazan product which was measured spectrophotometrically. The cells were seeded on 96-well plates and allowed to settle for 12 hours at 37° C. in 5% CO2. Appropriate drug concentrations diluted in growth medium were added for 24 hours. Toremifene was dissolved in 95% ethanol stock solution, doxorubicin stock solution was prepared in water. […] The cells were incubated with the drugs for 24 hours, after which the cells were washed twice with phosphate buffered saline before being placed in 200 μl fresh medium for a further 48 hours. At the end of this incubation 0.1 mg MTT was added to each well and incubated for 4 hours. The medium was carefully aspirated and the crystals were solubilised in 100 μ l DMSO (dimethyl sulfoxide). Absorbances at 540 nm were read immediately on an ELISA Multiskan reader. The results were expressed as a percentage of absorbance of drug treated cells compared to controls.\nThe effect of AAG in the concentration of 0.1 to 2 mg/ml was assessed on the potentiation produced by toremifene."}, "PKC": {"tested_on": "PKC", "conditions": "Horgan et al; cited from earlier work"}, "cultured cells": {"tested_on": "cultured cells", "conditions": "Sutherland et al; cited from earlier work"}, "rat PKC": {"tested_on": "rat PKC", "conditions": "O'Brian et al; cited from earlier work"}, "[1]": {"conditions": "at dose levels or concentrations required for MDR reversal; cited from earlier work"}, "[2]": {"tested_on": "MCF-7 oestrogen receptor positive breast cancer cell line", "conditions": "Foster et al, cited from earlier work; for Modulation of multidrug resistance: 10 μM tamoxifen or perhexilene maleate"}, "Human melanoma UV-me-1": {"tested_on": "Human melanoma UV-me-1", "test": "Toremifene and doxorubicin in human melanoma UV-me-1", "conditions": "for Toremifene and doxorubicin in UV-me-1 (living cells): toremifene 0 μM, 2 days, control 100"}, "HOV-007": {"tested_on": "HOV-007", "test": "Number of living cells (bioluminescence), ovarian cancer line HOV-007", "conditions": "toremifene 0 μM, 3 days", "experimental": "(§1) Two human ovarian cell lines were established in vitro from fresh serous ovarian cancer tissues. The lines are coded HOV-007 and HOV-018. The cells were cultivated in Eagle's MEM containing 1% unstripped foetal calf serum. The assays were carried out at 37° C. in 5% CO2 on 96 well plates.\npresented. Number of cells was quantitated after 3 days'"}, "Lewis Lung (LL) tumor": {"tested_on": "Lewis Lung (LL) tumor", "test": "Schedule dependency of antitumor effect in Lewis Lung tumor", "experimental": "(§2) Lewis Lung (LL) or melanoma B-16 tumor cells, 2×10^6 cells/animal, were inoculated intramuscularly to female C-57 mice. Tumors were allowed to grow to the mean diameter of 1.5 cm after which toremifene/doxorubicin treatments were started as indicated in the next tables. Tumor size was measured before treatment and after 10 days in 2 dimensions and the mean was considered as tumor diameter. Weight of the animals was also recorded."}, "B-16 melanoma": {"tested_on": "B-16 melanoma", "test": "Schedule dependency of antitumor effect in B-16 melanoma", "experimental": "as §2"}, "HOV-018": {"tested_on": "HOV-018", "test": "Number of living cells (bioluminescence), ovarian cancer line HOV-018", "conditions": "toremifene 0 μM, 4320 min", "experimental": "as §1"}, "[3]": {"conditions": "drug 0.6 μg/ml +1 μM doxorubicin"}, "[4]": {"conditions": "doxorubicin 3 mg/kg s.c. days 1-5"}, "[5]": {"conditions": "doxorubicin 3 mg/kg s.c. days 6-10"}}, "note": "Entries after “also recorded” stand apart in the source; their conditions may differ. Structures can show the parent of a compound that is named as a salt. Numbered stars: 1 amine (or outer) side, 2 acyl side, 3 side chain; on linkers, the order of the positions; unused ones are H or OH. Bridge positions count the residues as written; N and C are the ends. Square brackets hold non-standard residues; d marks the D form. Peptide text beside a SMILES is read from it. I, II: the chains in the order shown. Actinocin(9to1) = Cc1c2oc3c(C)ccc(C(=O)[*:1])c3nc-2c(C(=O)[*:2])c(N)c1=O; NMeV = CN[C@H](C(=O)O)C(C)C; Sar = CNCC(=O)O", "data": [{"compound": "COc1ccc2c(c1)CCC(c1ccccc1)=C2c1ccc(OCCN2CCCC2)cc1", "note": "[nafoxidine]", "values": [{"measurement": "Reversal of MDR by triparonol analogues", "setting": "MDR cell", "result": "reversal of MDR"}]}, {"compound": "CN(C)CCOc1ccc(C(=C(CCCl)c2ccccc2)c2ccc(O)cc2)cc1", "note": "[4-hydroxytoremifene, 4-chloro-1-(4-hydroxyphenyl)-2-phenyl-1-(4-(2-(N,N-dimethylamino)ethoxy)phenyl)-1-butene]", "values": [{"measurement": "Effectiveness in reversing MDR", "setting": "MCF-7/DOX cells", "result": "slightly less effective"}, {"measurement": "Inhibition of cell growth, Actual", "setting": "MCF-7/DOX cells; [3]", "result": 28, "unit": "% control"}, {"measurement": "Potential (potentiation of doxorubicin activity)", "setting": "MCF-7/DOX cells; [3]", "result": 8, "unit": "% control"}, {"measurement": "Inhibition of cell growth, Actual", "setting": "MCF-7/DOX cells; drug […] +1 μM doxorubicin", "result": 45, "unit": "% control"}, {"measurement": "Potential (potentiation of doxorubicin activity)", "setting": "MCF-7/DOX cells; drug […] +1 μM doxorubicin", "result": 10, "unit": "% control"}]}, {"compound": "Cc1c2oc3c(C)ccc(C(=O)N[C@@H]4C(=O)N[C@H](C(C)C)C(=O)N5CCC[C@H]5C(=O)N(C)CC(=O)N(C)[C@@H](C(C)C)C(=O)O[C@@H]4C)c3nc-2c(C(=O)N[C@@H]2C(=O)N[C@H](C(C)C)C(=O)N3CCC[C@H]3C(=O)N(C)CC(=O)N(C)[C@@H](C(C)C)C(=O)O[C@@H]2C)c(N)c1=O", "note": "[actinomycin D, reference compound] (I: T[dV]P[Sar][NMeV] / II: T[dV]P[Sar][NMeV]; ester I:1-I:C, II:1-II:C; linker I:N-II:N via Actinocin(9to1))", "values": [{"measurement": "Resistance of the CHO-Adr cell line", "setting": "CHO-Adr cells", "result": "cross-resistant"}]}, {"compound": "CNCCOc1ccc(C(=C(CCCl)c2ccccc2)c2ccccc2)cc1", "note": "[N-demethyltoremifene, 4-chloro-1,2-diphenyl-1-(4-(2-(N-methylamino)ethoxy)phenyl)-1-butene]", "values": [{"measurement": "Effectiveness in reversing MDR", "setting": "MCF-7/DOX cells", "result": "almost equally effective"}, {"measurement": "Inhibition of cell growth, Actual", "setting": "MCF-7/DOX cells; [3]", "result": 28, "unit": "% control"}, {"measurement": "Potential (potentiation of doxorubicin activity)", "setting": "MCF-7/DOX cells; [3]", "result": 33, "unit": "% control"}, {"measurement": "Inhibition of cell growth, Actual", "setting": "MCF-7/DOX cells; drug […] +1 μM doxorubicin", "result": 40, "unit": "% control"}, {"measurement": "Potential (potentiation of doxorubicin activity)", "setting": "MCF-7/DOX cells; drug […] +1 μM doxorubicin", "result": 43, "unit": "% control"}]}, {"compound": "CC/C(=C(\\c1ccccc1)c1ccc(OCCN(C)C)cc1)c1ccccc1", "note": "[Tamoxifen, tamoxifen]", "values": [{"measurement": "Effectiveness in reversing MDR", "setting": "MCF-7/DOX cells", "result": "almost equally effective"}, {"measurement": "Inhibition of PKC activity in vivo", "setting": "PKC", "result": "inhibition of PKC activity in vivo"}, {"measurement": "Reversal by oestradiol of growth inhibitory effects of high doses", "setting": "cultured cells", "result": "could not be reversed by oestradiol"}, {"measurement": "Inhibition of rat PKC activity in vitro", "setting": "rat PKC", "result": "inhibition of rat PKC activity in vitro"}, {"measurement": "Safety / toxicity in clinical use", "setting": "[1]", "result": "higher toxicity"}, {"measurement": "Reversal of MDR by triparonol analogues", "setting": "MDR cell", "result": "reversal of MDR"}, {"measurement": "Modulation of multidrug resistance", "setting": "[2]", "result": "modulation of multidrug resistance; also recorded: possess activity for reversing MDR"}, {"measurement": "C14-doxorubicin accumulation", "setting": "[2]", "result": "no increase in C14-doxorubicin accumulation"}, {"measurement": "Effect of 50 nM estradiol on the effects of tamoxifen", "setting": "[2]", "result": "did not attenuate the effects of tamoxifen"}]}, {"compound": "CCC(=C(c1ccc(O)cc1)c1ccc(OCCN(C)C)cc1)c1ccccc1", "note": "[4-hydroxy tamoxifen]", "values": [{"measurement": "Inhibition of rat PKC activity in vitro", "setting": "rat PKC", "result": "inhibition of rat PKC activity in vitro"}]}, {"compound": "COc1cccc2c1C(=O)c1c(O)c3c(c(O)c1C2=O)C[C@@](O)(C(=O)CO)C[C@@H]3O[C@H]1C[C@H](N)[C@H](O)[C@H](C)O1", "note": "[doxorubicin]", "values": [{"measurement": "Sensitivity of the cell line", "setting": "Human melanoma UV-me-1; UV-me-1", "result": "relatively sensitive"}, {"measurement": "Toremifene and doxorubicin in UV-me-1 (living cells)", "setting": "Human melanoma UV-me-1; doxorubicin 0.1 μg/ml", "result": 74}, {"measurement": "Toremifene and doxorubicin in UV-me-1 (living cells)", "setting": "Human melanoma UV-me-1; doxorubicin 1.0 μg/ml", "result": 9}, {"measurement": "Number of living cells", "setting": "HOV-007; doxorubicin 0.1 μg/ml", "result": "87% of control values"}, {"measurement": "Number of living cells", "setting": "HOV-007; doxorubicin 0.3 μg/ml", "result": "64% of control values"}, {"measurement": "Number of living cells", "setting": "HOV-007; doxorubicin 1.0 μg/ml", "result": "41% of control values"}, {"measurement": "Change of body weight", "setting": "Lewis Lung (LL) tumor; [4]", "result": -2, "unit": "g"}, {"measurement": "Change of tumor diameter", "setting": "Lewis Lung (LL) tumor; [4]", "result": "+2.0 mm"}, {"measurement": "Change of body weight", "setting": "Lewis Lung (LL) tumor; [5]", "result": "+10 g"}, {"measurement": "Change of tumor diameter", "setting": "Lewis Lung (LL) tumor; [5]", "result": "+3.7 mm"}, {"measurement": "Change of body weight", "setting": "B-16 melanoma; [4]", "result": -5, "unit": "g"}, {"measurement": "Change of tumor size", "setting": "B-16 melanoma; [4]", "result": "+1.9 mm"}, {"measurement": "Change of body weight", "setting": "B-16 melanoma; [5]", "result": -2, "unit": "g"}, {"measurement": "Change of tumor size", "setting": "B-16 melanoma; [5]", "result": "+3.1 mm"}, {"measurement": "Number of living cells", "setting": "HOV-018; doxorubicin 0.1 μg/ml", "result": "96% of control values"}, {"measurement": "Number of living cells", "setting": "HOV-018; doxorubicin 0.3 μg/ml", "result": "89% of control values"}, {"measurement": "Resistance of the CHO-Adr cell line", "setting": "CHO-Adr cells", "result": "resistant"}]}, {"compound": "C1CCC(C(CC2CCCCN2)C2CCCCC2)CC1", "note": "(stereo not shown) [perhexilene maleate, perhexiline maleate]", "values": [{"measurement": "Modulation of multidrug resistance", "setting": "[2]", "result": "modulation of multidrug resistance"}]}, {"compound": "COc1cccc2c1C(=O)c1c(O)c3c(c(O)c1C2=O)C[C@@](O)(C(C)=O)C[C@@H]3O[C@H]1C[C@H](N)[C@H](O)[C@H](C)O1", "note": "[daunorubicin, reference compound]", "values": [{"measurement": "Resistance of the CHO-Adr cell line", "setting": "CHO-Adr cells", "result": "cross-resistant"}]}, {"compound": "CCN(CC)CCOc1ccc(C(=C(Cl)c2ccccc2)c2ccccc2)cc1", "note": "[clomiphene]", "values": [{"measurement": "Reversal of MDR by triparonol analogues", "setting": "MDR cell", "result": "reversal of MDR"}]}, {"compound": "COc1cc2c(c(OC)c1OC)-c1ccc(OC)c(=O)cc1[C@@H](NC(C)=O)CC2", "note": "[colchicine, reference compound]", "values": [{"measurement": "Resistance of the CHO-Adr cell line", "setting": "CHO-Adr cells", "result": "cross-resistant"}]}]}
